Non-standard residues stand in square brackets, D forms with d. No end group written: not given here.
Assays:
S. aureus MN8 biofilms = assay: ThT fluorescence assay of amyloid formation in S. aureus MN8 biofilm cultures; type: cell-based, Staphylococcus aureus; conditions: MN8 and SH1000 WT strains, particularly MN8; 24 h, 37° C.
Procedure: We developed a novel protocol to identify amyloid fibril formation during biofilm development in two S. aureus strains—SH1000 WT, a rsbU^+ laboratory strain^27, and MN8, a clinical strain isolated from the human urogenital tract (Table 1). After 24 hours of batch growth in microtiter plates, biofilms were washed and incubated with Thioflavin T (ThT), and the resulting fluorescence signals served as a proxy for the extent of PSM fibril formation in the EM (FIG. 1A). Next, we utilized this assay to test α-sheet amyloid inhibitor designs and control peptides (sequences provided in Table 2) in batch biofilm cultures. The first inhibitor used is AP90 (Alternating Peptide #90, referred to as α1 previously^25,26). […] The AP401 and AP407 designs display similar spectral features by CD, except that AP401 has a positive signal in the random coil region (FIG. 7). AP401 has the same sequence as AP90 but with reversed chirality in the strands and turn, thus the D-amino acids give rise to an approximate mirror image CD spectrum relative to AP90. AP407 is a variant of AP90 with a disulfide bond. An unstructured random coil peptide (RC) and a β-hairpin (β) are used as structural controls.
Designed and control peptides were added to the growth medium prior to inoculation, and biofilms were allowed to grow for 24 hours at 37° C. Planktonic cells were removed and the remaining biofilms were assayed for amyloid content using ThT. […] The disulfide-linked peptide design, AP407, reduced the amyloid fibril formation by 46% and 56% in the MN8 and SH1000 WT strains, respectively. In contrast, the random coil and β-sheet control peptides were ineffective.
Overnight cultures of S. aureus (see Table 1 for a list of strains used in this study) were spun down and re-suspended in fresh Luria-Bertani (LB) media to an optical density of 0.1 (600 nm). These cultures were then mixed with reconstituted peptide (or water, in the case of controls) and aliquoted in quadruplicate into wells of a clear 48-well plate (Corning, TC-treated polystyrene). The final concentration of peptide in each well was 80 μM, unless otherwise noted. Plates were covered and biofilms were grown at 37° C. for 24 hours with gentle rocking. At this time, medium and planktonic cells were removed from wells using a vacuum and the remaining adherent biofilms were rinsed once with PBS (BupH™, Thermo Scientific). Thioflavin T (ThT), an established fluorescent label for amyloid fibrils^40, was then added to each well at a concentration of 22 μM and biofilms were incubated statically for 4 hours at room temperature. The solution was then removed from the wells and PBS was added with vigorous pipetting to detach biofilms from the plate surface. Plates were shaken at high speed for 1 minute on a plate shaker to detach any remaining biofilm material and homogenize the samples. The detached biofilm suspensions were transferred to a 96-well black-walled plate (Corning, TC-treated polystyrene) and ThT fluorescence was read at 438/495 nm on a Perkin-Elmer Enspire™ plate reader. Fluorescence measurements were corrected by subtracting the background intensity of identical samples without ThT. For calculation of live:dead cell ratios, biofilm suspensions were prepared as described above and cells were stained with a 1:1 mixture of Syto9 and propidium iodide (LIVE/DEAD BacLight™ Bacterial Viability Kit, Thermo Scientific). After 15 minutes of incubation at room temperature, fluorescence ratios of the two dyes were determined using a Perkin-Elmer Enspire™ plate reader.

synthetic PSMα1 = assay: PSMα1 fibrillization assay with added inhibitors (ThT); type: biochemical, Staphylococcus aureus
Procedure: FIG. 5. Aggregation of synthetic PSMα1 is inhibited by designed α-sheet peptides. (A) Synthetic PSMα1 peptide (30 μM, <1% DMSO, pH 5.5) was allowed to aggregate alone and in the presence of AP90 (1:4 molar ratio), RC (1:4 molar ratio), or AP407 (1:3 molar ratio). Two different solvent conditions were used (water+<1% DMSO; LB medium+<1% DMSO) and aggregation was monitored by ThT fluorescence. Inhibition values for each peptide are reported as a percentage of the peptide-free control samples (0% inhibition). (B) ThT fluorescence curves monitored the aggregation kinetics of PSMα1 under two different solvent conditions (water+<1% DMSO, black circles; LB medium+<1% DMSO, white circles). Fluorescence values in (B) are averages of 3-6 samples, with error bars to represent the standard deviation of the mean.
Designed α-sheet peptides inhibit amyloid formation through selective binding After establishing the structural transitions required to form amyloid in PSMα1, we examined the effect of the designed α-sheet peptides on the aggregation of PSMα1 in vitro. The designed peptide inhibitors were co-incubated with freshly prepared samples of synthetic PSMα1 (30 μM) and aggregation was monitored by ThT, as described above. To ensure sample homogeneity and removal of any amyloid “seeds” prior to aggregation, the synthetic PSMα1 peptide was treated with DMSO and then diluted into filtered water. […]

[1] = system: Pseudomonas aeruginosa (PA); assay: Crystal violet biofilm assay; type: cell-based
From the text: (§1) Furthermore, these same inhibitors are active against EC, SE, and SM.

[2] = system: Streptococcus mutans (SM); assay: Crystal violet biofilm assay; type: cell-based
From the text: as §1

Escherichia coli (EC) = assay: Crystal violet biofilm assay; type: cell-based
From the text: as §1

[3] = system: Staphylococcus epidermidis (SE); assay: Crystal violet biofilm assay; type: cell-based
From the text: as §1

[4] = system: P. aeruginosa PAO1 pFap biofilms; assay: In situ ThT assay of Fap amyloid in P. aeruginosa biofilms; type: cell-based; conditions: LB medium, 37° C., 48 h
From the text: FIG. 15. Action of synthetic α-sheet peptides in the P. aeruginosa system. […] Error bars indicate standard deviation of the mean of at least three replicates. Significance values are p<0.05: *, p<0.01: **, p<0.001: ***.
The strain used in these experiments is a fap-overexpressing mutant of P. aeruginosa PAO1 WT called PAO1 pFap. The overexpression is generated by cloning the entire fap operon into a host expression vector, which is then transformed into PAO1 WT. […] For in situ assays, overnight cultures from a single colony of freshly transformed PAO1 pFap were used to inoculate 96 well plates in the presence of synthetic α-sheet peptides in LB medium. As a control, biofilms of the deletion strain PAO1 Δfap were grown under the same conditions. Plates were covered and incubated at 37° C. for 48 h. After incubation, planktonic cells and media were gently removed from the biofilms by pipetting. The biofilms were rinsed once with PBS prior to staining with 20 μM ThT. Stained biofilms were resuspended by pipetting and sonication, and the fluorescence of ThT was measured at 448/485 nm in a plate reader.

SA = assay: Crystal violet biofilm assay; type: cell-based, Staphylococcus aureus
From the text: as §1

KLKpLLTSENTL (KLK[dP]LLTSENTL) [RC, unstructured random coil peptide used as structural control]
Effect on amyloid fibril formation in S. aureus biofilms (ThT fluorescence, FIG. 1B) (S. aureus MN8 biofilms): ineffective | Inhibition of PSMα1 fibril formation (synthetic PSMα1; 30 μM PSMα1, LB medium + <1% DMSO, 1:4 molar ratio): did not significantly influence amyloid formation | Inhibition of PSMα1 amyloid formation (synthetic PSMα1; 30 μM PSMα1, water + <1% DMSO, 1:4 molar ratio (excess peptide)): little effect

RGNwNeSkMNEYSGWmLmLtMGR (RGN[dW]N[dE]S[dK]MNEYSGW[dM]L[dM]L[dT]MGR) [AP5]
Biofilm inhibition (crystal violet, FIG. 10) [1]: inhibition | Activity against biofilm-forming bacteria (crystal violet) [2]: active | Activity against biofilm-forming bacteria (crystal violet) (Escherichia coli (EC)): active | Activity against biofilm-forming bacteria (crystal violet) [3]: active | Amyloid formation in biofilms (ThT) [4]: significantly inhibit amyloid formation | Biofilm inhibition (crystal violet, FIG. 10) (SA): inhibition

SWTWEpNKWTWK (H-SWTWE[dP]NKWTWK-NH2; SMILES C[C@@H](O)[C@H](NC(=O)[C@H](Cc1c[nH]c2ccccc12)NC(=O)[C@H](CCCCN)NC(=O)[C@H](CC(N)=O)NC(=O)[C@H]1CCCN1C(=O)[C@H](CCC(=O)O)NC(=O)[C@H](Cc1c[nH]c2ccccc12)NC(=O)[C@@H](NC(=O)[C@H](Cc1c[nH]c2ccccc12)NC(=O)[C@@H](N)CO)[C@@H](C)O)C(=O)N[C@@H](Cc1c[nH]c2ccccc12)C(=O)N[C@@H](CCCCN)C(N)=O) [β, β-hairpin structural control peptide, reference compound]
Effect on amyloid fibril formation in S. aureus biofilms (ThT fluorescence, FIG. 1B) (S. aureus MN8 biofilms): ineffective

rGeMnLsWmneysGwTmNlKmGr (Ac-[dR]G[dE]M[dN]L[dS]W[dM][dN][dE][dY][dS]G[dW]T[dM]N[dL]K[dM]G[dR]-NH2; SMILES CSCC[C@H](NC(=O)[C@@H](CCC(=O)O)NC(=O)CNC(=O)[C@@H](CCCNC(=N)N)NC(C)=O)C(=O)N[C@H](CC(N)=O)C(=O)N[C@@H](CC(C)C)C(=O)N[C@H](CO)C(=O)N[C@@H](Cc1c[nH]c2ccccc12)C(=O)N[C@H](CCSC)C(=O)N[C@H](CC(N)=O)C(=O)N[C@H](CCC(=O)O)C(=O)N[C@H](Cc1ccc(O)cc1)C(=O)N[C@H](CO)C(=O)NCC(=O)N[C@H](Cc1c[nH]c2ccccc12)C(=O)N[C@H](C(=O)N[C@H](CCSC)C(=O)N[C@@H](CC(N)=O)C(=O)N[C@H](CC(C)C)C(=O)N[C@@H](CCCCN)C(=O)N[C@H](CCSC)C(=O)NCC(=O)N[C@H](CCCNC(=N)N)C(N)=O)[C@@H](C)O) [AP401]
Effect on amyloid fibril formation in S. aureus biofilms (ThT fluorescence, FIG. 1B) (S. aureus MN8 biofilms): significant reduction in amyloid fibril formation

Source: patent US11033604B2, “Reagents and methods for treating bacterial infection” (priority 2018, dated 2021)
